Laboratory results: patent US20150087673A1, “METHODS FOR USING AND BIOMARKERS FOR AMPK-ACTIVATING COMPOUNDS” (RIGEL PHARMACEUTICALS, INC., priority 2013, published 2015)

The compounds below were run on AMPK (assay: AMPK activation assay (enzyme-linked immunosorbent assay)).
Assay type: cell-based
Summary of the method: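 Activation by each compound is measured using a conventional commercial immunoassay kit.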

SMILES | EC50
N#Cc1ccc(CN2CCC(NC(=O)c3ccc(C(=O)N4CC(OCc5ccc(F)cc5)C4)cn3)CC2)cc1 [Compound 307, N-(1-(4-cyanobenzyl)piperidin-4-yl)-5-(3-(4-fluorobenzyloxy)azetidine-1-carbonyl)picolinamide] | 0.5 to 1 µM
N#Cc1ccc(Oc2ccc(NC(=O)c3ccc(C(=O)N4CCC(S(=O)(=O)c5ccc(F)cc5)CC4)nc3)cn2)cc1 [Compound 472, N-(6-(4-cyanophenoxy)pyridin-3-yl)-6-(4-(4-fluorophenylsulfonyl)piperidine-1-carbonyl)nicotinamide] | 1 to 5 µM
O=C(c1ccc(C(=O)N2CCN(CCc3ccccc3)CC2)nc1)N1CCN(c2ccccc2)CC1 [Compound 90, (4-phenethylpiperazin-1-yl)(5-(4-phenylpiperazine-1-carbonyl)pyridin-2-yl)methanone] | > 10 µM
O=C(Nc1ccc(N2CCOCC2)cc1)c1ccc(C(=O)N2CCN(Cc3ccc(F)cc3)CC2)cn1 [Compound 40, 5-(4-(4-fluorobenzyl)piperazine-1-carbonyl)-N-(4-morpholinophenyl)picolinamide] | 1 to 5 µM
COc1ccc(C(=O)C2CCN(C(=O)c3ccc(C(=O)NC4CCNCC4)cn3)CC2)cc1 [Compound 445, 6-(4-(4-methoxybenzoyl)piperidine-1-carbonyl)-N-(piperidin-4-yl)nicotinamide] | > 10 µM
CS(=O)(=O)c1ccc(C(=O)C2CCN(C(=O)c3ccc(C(=O)NC4CCN(Cc5ccc(F)cc5)CC4)cn3)CC2)cc1 [Compound 222, N-(1-(4-fluorobenzyl)piperidin-4-yl)-6-(4-(4-(methylsulfonyl)benzoyl)piperidine-1-carbonyl)nicotinamide] | 1 to 5 µM
N#Cc1ccc(CN2CCC(NC(=O)c3ccc(C(=O)N4CCN(C(=O)c5ccc(F)cc5)CC4)cn3)CC2)cc1 [Compound 76, N-(1-(4-cyanobenzyl)piperidin-4-yl)-5-(4-(4-fluorobenzoyl)piperazine-1-carbonyl)picolinamide] | < 0.5 µM
COc1ccc(C(=O)C2CCN(C(=O)c3ccc(C(=O)N(C)C4CCN(Cc5ccc(OC(F)(F)F)cc5)CC4)cn3)CC2)cc1 [Compound 483, 6-(4-(4-methoxybenzoyl)piperidine-1-carbonyl)-N-methyl-N-(1-(4-(trifluoromethoxy)benzyl)piperidin-4-yl)nicotinamide] | < 0.5 µM
N#Cc1ccc(CN2CCC(NC(=O)c3ccc(C(=O)N4CCN(S(=O)(=O)c5ccccc5)CC4)cn3)CC2)cc1 [Compound 82, N-(1-(4-cyanobenzyl)piperidin-4-yl)-5-(4-(phenylsulfonyl)piperazine-1-carbonyl)picolinamide] | 0.5 to 1 µM
O=C(Nc1ccc(Oc2ccc(F)cc2)nc1)c1ccc(C(=O)N2CCN(Cc3ccc(F)cc3)CC2)cn1 [Compound 65, 5-(4-(4-fluorobenzyl)piperazine-1-carbonyl)-N-(6-(4-fluorophenoxy)pyridin-3-yl)picolinamide] | < 0.5 µM
O=C(Nc1ccc(-c2ccccc2)cc1)c1ccc(C(=O)NC2CCN(Cc3ccccc3)CC2)nc1 [Compound 105, N2-(1-benzylpiperidin-4-yl)-N5-(biphenyl-4-yl)pyridine-2,5-dicarboxamide] | > 10 µM
COc1ccc(C(=O)C2CCN(C(=O)c3ccc(C(=O)Nc4ccc(S(=O)(=O)c5ccc(F)cc5)nc4)cn3)CC2)cc1 [Compound 467, N-(6-(4-fluorophenylsulfonyl)pyridin-3-yl)-6-(4-(4-methoxybenzoyl)piperidine-1-carbonyl)nicotinamide] | 1 to 5 µM
COc1ccc(C(=O)C2CCN(C(=O)c3ccc(C(=O)N[C@@H]4CCN(Cc5cc(C)on5)C[C@@H]4F)cn3)CC2)cc1 [Compound 426, N-((3S,4R)-3-fluoro-1-((5-methylisoxazol-3-yl)methyl)piperidin-4-yl)-6-(4-(4-methoxybenzoyl)piperidine-1-carbonyl)nicotinamide] | < 0.5 µM
N#Cc1ccc(OC2CCN(C(=O)c3ccc(C(=O)NC4CCN(Cc5ccc(OC(F)(F)F)cc5)CC4)cn3)CC2)cc1 [Compound 338, 6-(4-(4-cyanophenoxy)piperidine-1-carbonyl)-N-(1-(4-(trifluoromethoxy)benzyl)piperidin-4-yl)nicotinamide] | < 0.5 µM
N#Cc1ccc(CN2CCC(C(=O)Nc3ccc(C(=O)N4CCC(C(=O)c5ccc(F)cc5)CC4)cn3)CC2)cc1 [Compound 175, 1-(4-cyanobenzyl)-N-(5-(4-(4-fluorobenzoyl)piperidine-1-carbonyl)pyridin-2-yl)piperidine-4-carboxamide] | < 0.5 µM
N#Cc1ccc(CN2CCC(NC(=O)c3ccc(C(=O)N4CCC(Oc5cccc(C#N)c5)CC4)cn3)CC2)cc1 [Compound 155, N-(1-(4-cyanobenzyl)piperidin-4-yl)-5-(4-(3-cyanophenoxy)piperidine-1-carbonyl)picolinamide] | < 0.5 µM
COc1ccc(CN2CCC(NC(=O)c3ccc(C(=O)N4CCC(C(=O)c5ccc(F)cc5F)CC4)nc3)CC2)cc1 [Compound 347, 6-(4-(2,4-difluorobenzoyl)piperidine-1-carbonyl)-N-(1-(4-methoxybenzyl)piperidin-4-yl)nicotinamide] | < 0.5 µM
N#Cc1ccc(OC2CCN(C(=O)c3ccc(C(=O)NC4CCN(Cc5nccs5)CC4)cn3)CC2)cc1 [Compound 356, 6-(4-(4-cyanophenoxy)piperidine-1-carbonyl)-N-(1-(thiazol-2-ylmethyl)piperidin-4-yl)nicotinamide] | < 0.5 µM
COc1ccc(OC2CCN(C(=O)c3ccc(C(=O)N[C@H]4CC[C@H](Oc5ccc(C#N)cc5)CC4)nc3)CC2)cc1 [Compound 172, N-((trans)-4-(4-cyanophenoxy)cyclohexyl)-5-(4-(4-methoxyphenoxy)piperidine-1-carbonyl)picolinamide] | < 0.5 µM
COc1ccc(C(=O)C2CCN(C(=O)c3ccc(C(=O)N[C@H]4CC[C@@H](Oc5ccc(F)cc5)CC4)nc3)CC2)cc1 [Compound 311, N-((cis)-4-(4-fluorophenoxy)cyclohexyl)-5-(4-(4-methoxybenzoyl)piperidine-1-carbonyl)picolinamide] | < 0.5 µM
COc1ccc(CN2CCC(NC(=O)c3ccc(C(=O)N4CCC(Oc5ccc(F)cc5)CC4)cn3)CC2)cc1 [Compound 161, 5-(4-(4-fluorophenoxy)piperidine-1-carbonyl)-N-(1-(4-methoxybenzyl)piperidin-4-yl)picolinamide] | < 0.5 µM

Continued, values first:

EC50 | SMILES
< 0.5 µM | O=C(N[C@@H]1CCN(Cc2ccc(Cl)cc2)C[C@@H]1F)c1ccc(C(=O)N2CCN(Cc3ccc(F)cc3)CC2)cn1 (relative stereo) [Compound 127, N-(cis-1-(4-chlorobenzyl)-3-fluoropiperidin-4-yl)-5-(4-(4-fluorobenzyl)piperazine-1-carbonyl)picolinamide]
< 0.5 µM | CN(C)C(=O)c1ccc(OC2CCN(C(=O)c3ccc(C(=O)Nc4ccc(Oc5ccc(F)cc5)nc4)nc3)CC2)cc1 [Compound 360, 5-(4-(4-(dimethylcarbamoyl)phenoxy)piperidine-1-carbonyl)-N-(6-(4-fluorophenoxy)pyridin-3-yl)picolinamide]
< 0.5 µM | O=C(NC1CCN(Cc2ccc(F)cc2)CC1)c1ccc(C(=O)N2CC[C@H](Oc3ccc(F)cc3)C2)cn1 [Compound 182, (S)-N-(1-(4-fluorobenzyl)piperidin-4-yl)-5-(3-(4-fluorophenoxy)pyrrolidine-1-carbonyl)picolinamide]
< 0.5 µM | O=C(NC1CCN(Cc2ccc(F)cc2)CC1)c1ccc(C(=O)N2CCC(Oc3ccc(F)cc3)CC2)cn1 [Compound 180, N-(1-(4-fluorobenzyl)piperidin-4-yl)-5-(4-(4-fluorophenoxy)piperidine-1-carbonyl)picolinamide]
< 0.5 µM | O=C(N[C@@H]1CCN(Cc2ccncc2)C[C@@H]1F)c1ccc(C(=O)N2CCN(Cc3ccc(F)cc3)CC2)cn1 (relative stereo) [Compound 104, N-(cis-3-fluoro-1-(pyridin-4-ylmethyl)piperidin-4-yl)-5-(4-(4-fluorobenzyl)piperazine-1-carbonyl)picolinamide]
< 0.5 µM | O=C(NC1CCN(C(=O)C2CCCCC2)CC1)c1ccc(C(=O)N2CCN(Cc3ccc(F)cc3)CC2)cn1 [Compound 7, N-(1-(cyclohexanecarbonyl)piperidin-4-yl)-5-(4-(4-fluorobenzyl)piperazine-1-carbonyl)picolinamide]
< 0.5 µM | COc1ccc(CN2CCC(NC(=O)c3ccc(C(=O)N4CCC(C(=O)c5ccc(N6CCCC6)cc5)CC4)nc3)CC2)cc1 [Compound 439, N-(1-(4-methoxybenzyl)piperidin-4-yl)-6-(4-(4-(pyrrolidin-1-yl)benzoyl)piperidine-1-carbonyl)nicotinamide]
< 0.5 µM | O=C(NC1CCN(Cc2ccccc2)CC1)c1ccc(C(=O)N2CCN(Cc3ccccc3)CC2)nc1 [Compound 74, 6-(4-benzylpiperazine-1-carbonyl)-N-(1-benzylpiperidin-4-yl)nicotinamide]
< 0.5 µM | CC(=O)c1ccc(Oc2ccc(NC(=O)c3ccc(C(=O)N4CCC(C(=O)c5ccc(F)cc5F)CC4)nc3)cn2)cc1 [Compound 464, N-(6-(4-acetylphenoxy)pyridin-3-yl)-6-(4-(2,4-difluorobenzoyl)piperidine-1-carbonyl)nicotinamide]
< 0.5 µM | N#Cc1ccc(CN2CCC(NC(=O)c3ccc(C(=O)N4CCC(Oc5ccc(C(=O)C6CC6)cc5)CC4)nc3)CC2)cc1 [Compound 456, N-(1-(4-cyanobenzyl)piperidin-4-yl)-6-(4-(4-(cyclopropanecarbonyl)phenoxy)piperidine-1-carbonyl)nicotinamide]
< 0.5 µM | N#Cc1ccc(CN2CCC(NC(=O)c3ccc(C(=O)N4CCC(Oc5ccc(C#N)cc5)CC4)nc3)CC2)cc1 [Compound 323, N-(1-(4-cyanobenzyl)piperidin-4-yl)-6-(4-(4-cyanophenoxy)piperidine-1-carbonyl)nicotinamide]
< 0.5 µM | CS(=O)(=O)c1ccc(Oc2ccc(NC(=O)c3ccc(C(=O)N4CCC(C(=O)c5ccc(F)cc5F)CC4)nc3)cn2)cc1 [Compound 466, 6-(4-(2,4-difluorobenzoyl)piperidine-1-carbonyl)-N-(6-(4-(methylsulfonyl)phenoxy)pyridin-3-yl)nicotinamide]
